Substitutions are numbered along the chain they refer to.

In experiment [1] the target is T1, OX2R (Rattus norvegicus, UniProt P56719).
T1 construct: expressed in transfected cells; host or cells: CHO-K1
T1 sequence (P56719 1-460): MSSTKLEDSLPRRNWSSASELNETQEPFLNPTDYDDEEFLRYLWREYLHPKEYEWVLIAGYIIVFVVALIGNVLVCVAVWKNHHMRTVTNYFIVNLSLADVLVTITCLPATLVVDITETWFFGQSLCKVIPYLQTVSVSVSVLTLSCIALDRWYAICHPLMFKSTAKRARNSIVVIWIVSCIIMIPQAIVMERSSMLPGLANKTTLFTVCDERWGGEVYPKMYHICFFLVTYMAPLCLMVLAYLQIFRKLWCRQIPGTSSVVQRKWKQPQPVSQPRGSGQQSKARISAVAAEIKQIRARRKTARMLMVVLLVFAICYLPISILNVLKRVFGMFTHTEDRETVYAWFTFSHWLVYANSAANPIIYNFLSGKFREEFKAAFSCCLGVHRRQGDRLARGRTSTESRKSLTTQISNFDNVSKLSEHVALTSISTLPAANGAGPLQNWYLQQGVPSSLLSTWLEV
Nature of the experiment: Radio-ligand displacement binding, CHO-K1 membranes, rat OX2R. Particulars: for Ki: read-out: OX2R affinity (Ki); for fold OX2R selectivity (Ki): OX1R Ki / OX2R Ki. As to the method: (§1) MK-1064 was evaluated for its ability to inhibit orexin-peptide-A-induced calcium mobilization in CHO cell lines separately expressing OX1R and OX2R from mice, rats, rabbits, dogs, rhesus monkeys and humans.
(§2) Binding and functional blockade of OX1R and OX2R with MK-1064 relative to other 2-SORAs and the DORA, MK-6096, were assessed using membranes from Chinese hamster ovary (CHO)-K1 cells (American Type Tissue Collection, Manassas, VA) transfected to express human, mouse, rat, rabbit, dog, or rhesus monkey OX1R or OX2R receptors, as described previously. The kinetics of binding to human OX2R was assessed by radioligand displacement on CHO-K1 cells expressing the receptor. […] The ON rate analysis was performed by presoaking GF/B filters in 0.3% polyethyleneimine (Sigma) using a Skatron 12-well cell harvester and cold buffer at the indicated time points after addition. For OFF rate determination, binding reactions were allowed to proceed to equilibrium and terminated with 1000x [Kd] of unlabeled antagonist and filtered as above at pre-determined time points. Ultima Gold^TM (PerkinElmer 6013327) scintillation cocktail was added to each filter disc and counted on a PerkinElmer TriCarb 2910 scintillation counter. Data were analyzed using GraphPad® Prism v 6.04 (San Diego, CA, USA). The KON rate was determined according to the equation, KON = (KOBS − KOFF)/[ligand].

The target of experiment [2] is T2, OX1R (Macaca mulatta, UniProt F7FE63).
T2 sequence (F7FE63 1-425): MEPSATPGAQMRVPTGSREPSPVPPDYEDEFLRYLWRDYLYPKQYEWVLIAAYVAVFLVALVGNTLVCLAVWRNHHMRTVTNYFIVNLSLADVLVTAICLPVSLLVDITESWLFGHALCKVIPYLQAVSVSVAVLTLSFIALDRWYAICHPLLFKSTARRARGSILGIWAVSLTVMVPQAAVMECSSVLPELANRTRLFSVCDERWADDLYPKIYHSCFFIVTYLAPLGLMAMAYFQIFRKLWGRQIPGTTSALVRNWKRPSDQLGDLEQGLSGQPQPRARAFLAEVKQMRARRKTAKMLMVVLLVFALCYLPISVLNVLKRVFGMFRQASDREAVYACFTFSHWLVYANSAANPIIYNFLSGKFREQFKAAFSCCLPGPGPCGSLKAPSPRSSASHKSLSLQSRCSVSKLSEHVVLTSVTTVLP
Nature of the experiment: Radio-ligand displacement binding, CHO-K1 membranes, rhesus OX1R. Particulars: read-out: OX1R affinity (Ki). Further details: species or system rhesus monkey. As to the method: as §1, §2

In experiment [3] the target is T3, OX2R (Canis lupus familiaris, UniProt Q9TUP7).
T3 construct: expressed in transfected cells; host or cells: CHO-K1
T3 sequence (Q9TUP7 1-444): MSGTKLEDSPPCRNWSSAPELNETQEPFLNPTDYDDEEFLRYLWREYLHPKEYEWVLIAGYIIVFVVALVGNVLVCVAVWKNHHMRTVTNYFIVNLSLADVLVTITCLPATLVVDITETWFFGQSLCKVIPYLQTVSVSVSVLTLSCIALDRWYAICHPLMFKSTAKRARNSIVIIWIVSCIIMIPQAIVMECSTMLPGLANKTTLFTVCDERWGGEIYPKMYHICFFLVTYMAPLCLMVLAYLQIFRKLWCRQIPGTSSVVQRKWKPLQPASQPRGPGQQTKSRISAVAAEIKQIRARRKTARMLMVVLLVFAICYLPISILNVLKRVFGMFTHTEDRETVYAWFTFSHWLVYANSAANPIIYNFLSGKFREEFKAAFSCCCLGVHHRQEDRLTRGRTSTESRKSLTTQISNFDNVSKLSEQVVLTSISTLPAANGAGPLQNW
Nature of the experiment: Radio-ligand displacement binding, CHO-K1 membranes, dog OX2R. Particulars: for Ki: read-out: OX2R affinity (Ki); for fold OX2R selectivity (Ki): OX1R Ki / OX2R Ki. On the procedure:
as §1, §2

In experiment [4] the target is T4, OX1R (Mus musculus, UniProt P58307).
T4 construct: expressed in transfected cells; host or cells: CHO-K1
T4 sequence (P58307 1-416): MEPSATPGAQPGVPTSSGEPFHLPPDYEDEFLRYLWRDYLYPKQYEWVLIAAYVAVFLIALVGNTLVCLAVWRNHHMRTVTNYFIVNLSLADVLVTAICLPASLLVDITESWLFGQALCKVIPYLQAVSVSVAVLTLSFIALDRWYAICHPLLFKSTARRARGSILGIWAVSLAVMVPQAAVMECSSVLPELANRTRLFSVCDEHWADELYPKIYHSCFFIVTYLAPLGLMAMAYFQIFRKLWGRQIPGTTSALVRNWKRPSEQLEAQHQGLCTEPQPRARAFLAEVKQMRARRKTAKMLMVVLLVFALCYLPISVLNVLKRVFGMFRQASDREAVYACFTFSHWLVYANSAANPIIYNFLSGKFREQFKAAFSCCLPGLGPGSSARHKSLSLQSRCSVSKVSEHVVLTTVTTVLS
As to the kind of experiment: Inhibition of orexin-peptide-A-induced calcium mobilization in CHO cells, mouse OX1R. The class given is cell-based. On the procedure:
as §1, §2

The target of experiment [5] is T5, OX2R (Macaca mulatta, UniProt F7CZM2).
T5 sequence (F7CZM2 1-444): T3 sequence (Q9TUP7 1-444) with P19S, V70I, V113L, T195S, L197F, A272V, Q281P, E337D, V417I
Nature of the experiment: Radio-ligand displacement binding, CHO-K1 membranes, rhesus OX2R. Further details: species or system rhesus monkey. Particulars: for Ki: read-out: OX2R affinity (Ki); for fold OX2R selectivity (Ki): OX1R Ki / OX2R Ki. On the procedure: as §1, §2

As for `COc1ccc(CNC(=O)c2cc(-c3cncc(C)c3)ncc2-c2nccs2)nc1OC` [MK-3697], the Ki (in general, the dissociation constant of the complex between target and ligand, obtained from inhibition or displacement) at OX2R [1] came to 1.93 nM; on OX1R [2] it was 2180 nM; at OX2R [3], 1.1 nM; on OX2R [5], 1.14 nM. Further, the Kb on OX1R [4] amounted to 27200 nM.
On to `COc1ccc(CNC(=O)c2cc(-c3cc(Cl)cc(Cl)c3)cnc2-c2cccnc2)cc1OC` [2-SORA-18], for which the “fold OX2R selectivity (Ki)” value was “[522] fold” on OX2R [1], “[782] fold” at OX2R [3] and “[1200] fold” at OX2R [5]. The Ki at OX2R [1] worked out at 0.18 nM; on OX1R [2] it was 132 nM; on OX2R [3], 0.11 nM; on OX2R [5], 0.11 nM. At OX1R [4], the Kb worked out at 208 nM.
For the compound `COc1ccc(CNC(=O)c2cc(-c3cncc(Cl)c3)cnc2-c2ccccn2)nc1OC` [MK-1064, 5″-chloro-N-[(5,6-dimethoxypyridin-2-yl)methyl]-2,2′:5′, 3″-terpyridine-3′-carbo xamide], the “fold OX2R selectivity (Ki)” value at OX2R [1] was “[1288] fold”; at OX2R [3], “[1667] fold”; on OX2R [5] it was “[1315] fold”. For the same compound, the Ki at OX2R [1] was 0.83 nM; on OX1R [2], 815 nM; at OX2R [3], 0.78 nM; on OX2R [5], 0.62 nM. Moreover, the Kb on OX1R [4] is 10300 nM.
Regarding `COc1ccc(CNC(=O)c2cc(-c3cncc(C)c3)ncc2-c2ccccc2)nc1OC` [2-SORA-7], the “fold OX2R selectivity (Ki)” value is “[11877] fold” at OX2R [1], “[2857] fold” on OX2R [3] and “[1994] fold” on OX2R [5]. In addition, the Ki at OX2R [1] was 0.22 nM; on OX1R [2], 1340 nM; at OX2R [3], 0.63 nM; on OX2R [5], 0.67 nM. At OX1R [4], the Kb amounted to 7950 nM.
`Cc1ccc(-c2ncccn2)c(C(=O)N2C[C@H](COc3ccc(F)cn3)CC[C@H]2C)c1` [MK-6096]: the “fold OX2R selectivity (Ki)” value at OX2R [1] was “[11.4] fold”; on OX2R [3], “[7.5] fold”; at OX2R [5] it was “[28.4] fold”. Besides, the Ki on OX2R [1] was determined as 0.22 nM; on OX1R [2], 12.5 nM; on OX2R [3], 0.36 nM; at OX2R [5] it was 0.44 nM. Moreover, the Kb on OX1R [4] was 9 nM.

The values are drawn from article PMC4891657, “Orexin 2 Receptor Antagonism is Sufficient to Promote NREM and REM Sleep from Mouse to Man” (Scientific Reports, 2016).
